Test results published in patent publication US7943628B2, “Pyrimidine derivatives” (Pfizer Limited, priority 2005, dated 2011).

Target: T1, histamine H4 receptor (Homo sapiens, UniProt Q9H3N8)
T1 construct: expressed in transfected cells; host or cells: CHO cells
Assay: H4 binding, method 2 ([3H]-histamine binding with Ysi WGA beads on CHO cell membranes)
Conditions: H4 binding, method 2; Ki calculated from IC50 (Cheng-Prussoff); read-out: Method 2 (Ki (nM))
Experimental: Cell pellets from CHO cells expressing the histamine H4 receptor were homogenised in ice-cold 50 mM Tris-HCl/0.5 mM CaCl2 buffer containing a protease inhibitor cocktail (Roche®, United Kingdom) using a ground glass homogeniser. Homogenates were centrifuged at 48000 g for 30 min at 4° C. The membrane pellet was resuspended in fresh buffer and the centrifugation step was repeated as described above. The membrane pellet was resuspended in 50 mM Tris-HCl in the same volume as the original cell pellet. Aliquots of membrane preparations were stored at −80° C. and were used for [^3H]-Histamine binding experiments.
Cell membranes (15 μg/well) were pre-incubated for 120 min shaking at 4° C. with Ysi WGA beads (250 μg/well) in 50 mM Tris-HCl (pH 7.4) followed by centrifugation at 1500 rpm for 5 minutes and resuspension in 50 mM Tris-HCl (pH 7.4). The membrane/bead mixture (15 μg membrane/250 μg beads well) was incubated for 90 minutes shaking at room temperature with 6.5 nM [2,5-^3H] Histamine dihydrochloride (30-60 Ci/mmol) in 50 mM Tris-HCl (pH 7.4), with or without competing H4 ligands. Non-specific binding was defined with 10 μM JNJ7777120. Bound radiolabel was determined using scintillation counting techniques after 90 minutes.

T1 sequence (Q9H3N8 whole entry): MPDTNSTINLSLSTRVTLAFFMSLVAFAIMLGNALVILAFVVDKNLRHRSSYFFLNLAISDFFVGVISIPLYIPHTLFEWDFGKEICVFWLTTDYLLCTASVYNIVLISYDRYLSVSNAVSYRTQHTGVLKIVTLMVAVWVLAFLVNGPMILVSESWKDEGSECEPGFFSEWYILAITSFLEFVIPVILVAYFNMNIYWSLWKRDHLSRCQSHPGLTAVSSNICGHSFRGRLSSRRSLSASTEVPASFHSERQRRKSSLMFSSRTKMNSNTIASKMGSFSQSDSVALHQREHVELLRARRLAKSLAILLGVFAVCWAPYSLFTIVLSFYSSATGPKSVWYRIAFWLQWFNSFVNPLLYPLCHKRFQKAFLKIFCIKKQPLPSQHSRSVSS

How did the Ki turn out when `CCCNc1cc(N2C[C@H]3CN(C)C[C@H]3C2)nc(N)n1` [Example 34, 6-[(3aR*,6aS*)-5-Methylhexahydropyrrolo[3,4-c]pyrrol-2(1H)-yl]-N^4-propylpyrimidine-2,4-diamine] was run?
The Ki was 452 nM.

How did the Ki turn out when `CNC1CN(c2cc(NCC(C)(C)C)ncn2)C1` [Example 57, N-(2,2-Dimethylpropyl)-6-[3-(methylamino)azetidin-1-yl]pyrimidin-4-amine] was run?
Its Ki is 20.3 nM.

For `CNC1CN(c2cc(NCc3cccc(OC)c3)nc(N)n2)C1` [Example 66, N^4-(3-Methoxy-benzyl)-6-(3-methylamino-azetidin-1-yl)-pyrimidine-2,4-diamine], which Ki is on record?
The Ki was 61.1 nM.

With `CNc1nc(NCCC(C)(C)C)cc(N2CCN(C)CC2)n1` [Example 339, N^4-(3,3-Dimethylbutyl)-N^2-methyl-6-(4-methylpiperazin-1-yl)pyrimidine-2,4-diamine] as the compound, how does the Ki read?
The Ki was 9070 nM.

For `CNC1CN(c2cc(NCc3ccc(F)cc3)nc(N)n2)C1` [Example 90, N^4-(4-Fluorobenzyl)-6-[3-(methylamino)azetidin-1-yl]pyrimidine-2,4-diamine], which Ki is on record?
The Ki was 6.42 nM.

How did the Ki turn out when `CNC1CN(c2cc(NCc3ccc(F)cc3)ncn2)C1` [Example 47, N-(4-Fluorobenzyl)-6-[3-(methylamino)azetidin-1-yl]pyrimidin-4-amine] was run?
Its Ki is 256 nM.

For `CNC1CN(c2cc(NCc3cccc(Cl)c3)nc(N)n2)C1` [Example 86, N^4-(3-Chlorobenzyl)-6-[3-(methylamino)azetidin-1-yl]pyrimidine-2,4-diamine], which Ki is on record?
Its Ki is 142 nM.

Which Ki does the source give for `CCNc1cc(N2CC(NC)C2)ncn1` [Example 48, N-Ethyl-6-[3-(methylamino)azetidin-1-yl]pyrimidin-4-amine] here?
Its Ki is 49.7 nM.

How did the Ki turn out when `CNC1CN(c2cc(NCc3ccc(Cl)cc3)nc(N)n2)C1` [Example 81, N^4-(4-Chlorobenzyl)-6-[3-(methylamino)azetidin-1-yl]pyrimidine-2,4-diamine] was run?
The Ki was 12.1 nM.

`CC(C)(C)CNc1cc(N2C[C@@H]3[C@@H](N)[C@@H]3C2)nc(N)n1` [Example 126, 6-[(1R*,5S*,6s*)-6-Amino-3-azabicyclo[3.1.0]hex-3-yl]-N^4-(2,2-dimethylpropyl)pyrimidine-2,4-diamine] was tested. Which Ki did it give?
The Ki was 611 nM.

With `CNC1CN(c2cc(NCCC(C)C)ncn2)C1` [Example 55, 6-[3-(Methylamino)azetidin-1-yl]-N-(3-methylbutyl)pyrimidin-4-amine] as the compound, how does the Ki read?
Its Ki is 28.9 nM.

With `c1ccc(CCNc2cc(N[C@@H]3CCNC3)ncn2)cc1` [Example 346, N-(2-Phenylethyl)-N′-[(3R)-pyrrolidin-3-yl]pyrimidine4,6-diamine] as the compound, how does the Ki read?
The Ki was 38400 nM.

Which Ki does the source give for `CN1C[C@@H]2CN(c3cc(NCC4CC4)nc(N)n3)C[C@@H]2C1` [Example 38, N^4-(Cyclopropylmethyl)-6-[(3aR*,6aS*)-5-methylhexahydro-pyrrolo[3,4-c]pyrrol-2(1H)-yl]pyrimidine-2,4-diamine] here?
Its Ki is 128 nM.

With `CNc1cc(N2C[C@H]3CN(C)C[C@H]3C2)nc(N)n1` [Example 35, N^4-Methyl-6-[(3aR*,6aS*)-5-methylhexahydro-pyrrolo[3,4-c]pyrrol-2(1H)-yl]pyrimidine-2,4-diamine] as the compound, how does the Ki read?
Its Ki is 662 nM.

`CNC1CN(c2cc(N3CCC(C)CC3)ncn2)C1` [Example 53, N-Methyl-1-[6-(4-methylpiperidin-1-yl)pyrimidin-4-yl]azetidin-3-amine] was tested. Which Ki did it give?
Its Ki is 1940 nM.

Same assay, conditions: Method 2 (Ki (nM)), H4 binding, method 2; Ki calculated from IC50 (Cheng-Prussoff)

For `Nc1nc(NC2CCC2)cc(N2C[C@H]3CCCN[C@H]3C2)n1` (racemic) [Example 32, N^4-Cyclobutyl-6-[(4aR*,7aR*)-octahydro-6H-pyrrolo[3,4-b]pyridin-6-yl] pyrimidine-2,4-diamine], which Ki is on record?
Its Ki is 20.9 nM.

Which Ki does the source give for `CCNc1cc(N2CCN[C@@H](C)C2)nc(N)n1` [Example 98, N^4-Ethyl-6-[(3S)-3-methylpiperazin-1-yl]pyrimidine-2,4-diamine] here?
The Ki was 56.2 nM.

Same assay, conditions: at 40 μM

For `CC(C)(C)CCNc1cc(N2CCC(N)CC2)ncn1` [Example 340, 6-(4-Aminopiperidin-1-yl)-N-(3,3-dimethylbutyl)pyrimidin-4-amine], which “Method 2, % at 40 μM” value is on record?
Its value is 50% at 40 μM.
